Test results: article PMC6195846 (Molecular microbiology, 2018)

Legend:
RsBluE [1] = biological target: T1, RsBluE (Cereibacter sphaeroides, UniProt Q3IZR9); assay: ADP-Glo ATPase assay; format: biochemical; settings: ATPase inhibition by product; ADP 20 mM; sarkosyl-solubilized enzyme; 25 C
RsBluE [2] = biological target: T1, RsBluE; assay: ADP-Glo ATPase assay; format: biochemical; settings: ATPase inhibition; sodium pyrophosphate 10 mM; sarkosyl-solubilized enzyme; 25 C

Row | SMILES | % decrease in activity at 20 mM (RsBluE [1]) [%] | % decrease in activity at 10 mM (RsBluE [2]) [%]
1 | Nc1ncnc2c1ncn2[C@@H]1O[C@H](COP(=O)(O)OP(=O)(O)O)[C@@H](O)[C@H]1O [ADP] | 52 | –
2 | O=P(O)(O)OP(=O)(O)O [PPi] | – | 12
